Where no end group is shown, it is not given here.
Columns and labels:
vaccinia topoisomerase = biological target: T1, vaccinia topoisomerase (Vaccinia virus, UniProt P68698); assay: Gel shift of noncovalent topoisomerase-DNA complex (60-bp duplex with CCCTT site); assay type: binding; conditions: 0.72 to 1.8 μM peptide
T1 construct: made in house; host or cells: Escherichia coli BL21 infected with bacteriophage λCE6
Excerpt: To test whether the peptide interferes with the noncovalent association of topoisomerase with the DNA, we assayed the effects of the peptides on the binding of vaccinia topoisomerase to a radiolabeled 60-bp duplex DNA containing a single central CCCTT recognition site. In contrast to the suicide substrate, for which all bound enzymes are trapped in the covalent state, only about 20% of the fully double-stranded DNA molecules that are bound will be linked covalently to the protein (Wittschieben and Shuman, 1997).

Pst I = biological target: T2, Pst I (Providencia stuartii, UniProt P00640); assay: Restriction enzyme assay on pUC19; assay type: biochemical
T2 construct: purchased New England BioLabs
T2 sequence (P00640 1-326): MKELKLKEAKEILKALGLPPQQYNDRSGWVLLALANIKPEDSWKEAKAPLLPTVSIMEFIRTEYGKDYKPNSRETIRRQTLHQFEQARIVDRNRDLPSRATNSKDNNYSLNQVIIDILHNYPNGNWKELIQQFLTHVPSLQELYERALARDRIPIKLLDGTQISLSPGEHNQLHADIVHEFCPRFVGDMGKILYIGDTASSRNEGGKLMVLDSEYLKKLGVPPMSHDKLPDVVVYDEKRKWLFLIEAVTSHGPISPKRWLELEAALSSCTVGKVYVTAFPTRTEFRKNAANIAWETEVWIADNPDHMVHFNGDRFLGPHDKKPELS
Experimental: (§1) Restriction enzyme assays. Restriction digests were performed as specified and the products were separated on 0.8% agarose gels electrophoresed at 80-90V in 1× Tris borate EDTA buffer. Gels were photographed, scanned and quantitated using NIH Image v.1.55, as recommended in the instruction manual.

Hind III = biological target: T3, Hind III (Haemophilus influenzae, UniProt P43870); assay: Restriction enzyme assay on pUC19; assay type: biochemical
T3 construct: purchased New England BioLabs
Experimental: as §1

Xba I = assay: Restriction enzyme assay on pUC19; assay type: biochemical; conditions: Xba I (TCTAGA)
Experimental: as §1

Nde I = assay: Restriction enzyme assay on pUC19; assay type: biochemical; conditions: Nde I (CATATG)
Experimental: as §1

[1] = biological target: bacteriophage λ Integrase (Int) (Escherichia phage lambda, UniProt P03700); assay: Resolution of isolated excision Holliday junctions by Int, IHF and Xis; assay type: biochemical; conditions: peptide 100 μM
Experimental: FIG. 18 depicts effect of peptide WKHYNY on DNA cleavage. A. Time course of resolution of excision HJs. HJs were isolated, and Int, IHF, and Xis were added in the presence or absence of peptide 52 (100 μM) and stopped at various timepoints (1, 5, 15, 30, 60, and 90 min). Absence of peptide, closed circles; presence of peptide, open squares. B. The extent of strand cleavage of attL. An attL site containing a phosphorothiolate modification at the point of top strand cleavage (attLS) was incubated with Int, IHF, and Xis, in the presence of attR and in the presence or absence of peptide WKHYNY. Absence of peptide, open squares; presence of peptides, closed diamonds.
Holliday junctions can be resolved either in the “forward” direction to form recombinant products or in the “reverse” direction to re-form substrates. Synthetic HJs representing intermediates in the unidirectional reactions are preferentially resolved in the direction of products (Hsu and Landy, 1984; Franz and Landy, 1990, 1995). We wanted to determine whether HJs isolated in the presence of peptide behave similarly to the synthetic HJs. In addition, we wanted to analyze the processing of bent-L HJs. Recombination reactions were assembled in the presence of peptide WKHYNY, and protein-free HJs were isolated from SDS-containing gels, eluted, and precipitated. […]

Row | Substance | effect on formation of the noncovalent topoisomerase-DNA complex (vaccinia topoisomerase) | IC50 (Pst I) [µM] | IC50 (Hind III) [µM] | IC50 (Xba I) [µM] | IC50 (Nde I) [µM] | effect on rate of resolution of gel-isolated excision HJs [1]
1 | KWWCRW-NH2 [Peptide 59, KWWCRW] | did not inhibit | 44 | 48 | 37 | 37 | –
2 | WKHYNY-NH2 [Peptide 52, WKHYNY] | – | – | – | – | – | slowed the rate of cleavage

— patent US20040002441A1, “Recombination modulators and methods for producing and using the same” (priority 2000, published 2004)
